Data published in article PMC8748916, “Microbial enzymes induce colitis by reactivating triclosan in the mouse gastrointestinal tract” (Nature Communications, 2022).
Values joined by “and” are separate entries in the source; they are usually repeats but may differ in a detail not shown here. Equal entries are not always repeated.

Experiments:
[1] = LC-MS/MS of TCS and its metabolites in human stool and urine after use of TCS-containing personal care products; assay type: in vivo; settings: for TCS metabolites in human stool / TCS metabolites in human urine: Treatment TCS, individual subjects; for average molar concentration ratio: TCS-exposed subjects;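 as to Profile in stool (%): molar share of summed TCS plus TCS-G plus TCS-sulfate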;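 as to Profile in urine (%): molar share of summed TCS plus TCS-G plus TCS-sulfate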;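 as to average molar concentration ratio: molar share of summed TCS plus TCS-G plus TCS-sulfate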
From the text: To broaden our understanding of TCS metabolic profiles in the gut, we next analyzed TCS metabolism in human subjects. We utilized urine and stool samples from a previous study in which the recruited human subjects were first subjected to a washout period (no usage of TCS-containing products), then were randomly assigned to two groups that used personal care products like toothpaste with or without TCS for up to four months (see the scheme of the experiment in Fig. 1c)[15]. Previous data had established that humans are primarily exposed to TCS via toothpaste that provides a direct oral route to the gastrointestinal tract[16],[17].

[2] = LC-MS/MS profiling of TCS metabolism in mice (TCS via diet for 4 weeks); settings: for concentration of TCS, TCS-G, TCS-Sulfate: individual mice
[3] = tested on: enzymes extracted from human fecal samples; test: In fimo assay (TCS-G turnover rate by human fecal extracts); assay type: biochemical; settings: Fig. 3c, replicates 1-3
Method: Fecal extracts were prepared and proteomic analysis was performed exactly as previously described. In total, 10 g of frozen human fecal sample was thawed and added to 25 mL extraction buffer (25 mM HEPES, 25 mM NaCl pH 6.5 with Roche Complete protease inhibitor tablet) and 0.5 g autoclaved garnet beads. The mixture was vortexed until homogenous and centrifuged at low speed (300 × g for 5 min at 4 °C). The supernatant was decanted. In all, 25 mL buffer was added to the pellet and the vortex and centrifugation steps repeated. The supernatants from these steps were then combined and centrifuged at low speed for two more cycles. The resultant supernatant was sonicated twice using 1 s pulses for 1.5 min and the lysate was centrifuged at 17,000 × g for 20 min in a Beckman Coulter J2-HC centrifuge. The decanted lysate was then washed with several exchanges of extraction buffer to remove metabolites and small molecules. Total protein concentration was quantitated using a Bradford assay. The fecal lysate was diluted to 1 mg/mL concentration and snap-frozen in small aliquots.
Reaction mixtures contained 5 µL fecal extract (0.1 mg/mL final), 30 µL TCS-G (200 µM final), and 15 µL assay buffer (25 mM HEPES, 25 mM NaCl, pH 6.5). Reactions were quenched at five time points with 50 µL 25% trichloroacetic acid. Samples were centrifuged 20 min at 16,000 × g in a tabletop centrifuge, and the supernatant was analyzed via the same HPLC method described for the catalytic efficiency assay. Reaction rates were determined by fitting progress curves using linear regression and are expressed as initial turnover rates (µM/s). Controls contained fecal extract that had been heat-killed at 95 °C for 5 min. Reported rates are the average of three biological replicates ±SEM.

[4] = treatment time 0 months (after washout)

## O=S(=O)(O)Oc1cc(Cl)ccc1Oc1ccc(Cl)cc1Cl [TCS-sulfate, triclosan-sulfate]
[1]; TCS-exposed human subjects, n=7 urine samples
  Profile in urine (%): 0.04%
[1]; TCS-exposed human subjects, n=23 stool samples
  Profile in stool (%): 0.0365%
[1]; [4]
  TCS metabolites in human stool: 0.311 pmol/ g stool and < LOD
  TCS metabolites in human urine: 0.071 nM urine and < LOD (3×)
[1]; treatment time 1 month
  TCS metabolites in human stool: 1.344 pmol/ g stool and < LOD (3×) and 0.342 pmol/ g stool and 0.381 pmol/ g stool
  TCS metabolites in human urine: 0.470 nM urine
[1]; treatment time 2 months
  TCS metabolites in human stool: < LOD (4×) and 0.999 pmol/ g stool
  TCS metabolites in human urine: 0.522 nM urine
[1]; treatment time 3 months
  TCS metabolites in human stool: 0.987 pmol/ g stool and < LOD (5×)
  TCS metabolites in human urine: 0.157 nM urine
[1]; treatment time 4 months
  TCS metabolites in human stool: 0.971 pmol/ g stool and < LOD (4×) and 0.236 pmol/ g stool
  TCS metabolites in human urine: 0.257 nM urine and < LOD and 0.689 nM urine and 0.388 nM urine
[1]; human stool
  average molar concentration ratio: 0.0%
[1]; human urine
  average molar concentration ratio: 0.0%
[2]; Bile, 80 ppm TCS via diet 4 weeks
  concentration of TCS, TCS-G, TCS-Sulfate: 93.62 pmol/mg and 49.05 pmol/mg and 43.31 pmol/mg and 67.29 pmol/mg
[2]; Cecum (digesta), 80 ppm TCS via diet 4 weeks
  concentration of TCS, TCS-G, TCS-Sulfate: 0.12 pmol/mg and 0.13 pmol/mg and 0.09 pmol/mg and 0.35 pmol/mg and 0.29 pmol/mg and 0.53 pmol/mg and 0.56 pmol/mg and 0.38 pmol/mg and 0.61 pmol/mg and 0.54 pmol/mg
[2]; Cecum digesta, 1 ppm TCS in diet 4 weeks
  concentration of TCS, TCS-G, TCS-Sulfate: 0 pmol/mg
[2]; Cecum digesta, 10 ppm TCS in diet 4 weeks
  concentration of TCS, TCS-G, TCS-Sulfate: 0.02 pmol/mg and 0 pmol/mg and 0.01 pmol/mg
[2]; Cecum digesta, 80 ppm TCS in diet 4 weeks
  concentration of TCS, TCS-G, TCS-Sulfate: 0.03 pmol/mg and 0.05 pmol/mg and 0.08 pmol/mg and 0.06 pmol/mg and 0.13 pmol/mg
[2]; Colon (digesta), 80 ppm TCS via diet 4 weeks
  concentration of TCS, TCS-G, TCS-Sulfate: 1.16 pmol/mg and 1.00 pmol/mg and 1.32 pmol/mg and 1.31 pmol/mg and 2.15 pmol/mg and 0.67 pmol/mg and 0.75 pmol/mg and 2.57 pmol/mg and 1.48 pmol/mg and 2.39 pmol/mg
[2]; Colon digesta, 1 ppm TCS in diet 4 weeks
  concentration of TCS, TCS-G, TCS-Sulfate: 0 pmol/mg
[2]; Colon digesta, 10 ppm TCS in diet 4 weeks
  concentration of TCS, TCS-G, TCS-Sulfate: 0.2 pmol/mg and 0 pmol/mg and 0.03 pmol/mg and 0.01 pmol/mg and 0.05 pmol/mg and 0.02 pmol/mg
[2]; Colon digesta, 80 ppm TCS in diet 4 weeks
  concentration of TCS, TCS-G, TCS-Sulfate: 0.3 pmol/mg and 0.21 pmol/mg and 0.1 pmol/mg and 0.13 pmol/mg and 0.22 pmol/mg and 0.09 pmol/mg and 0.81 pmol/mg and 0.37 pmol/mg
[2]; Feces, 1 ppm TCS in diet 4 weeks
  concentration of TCS, TCS-G, TCS-Sulfate: 0.05 pmol/mg
[2]; Feces, 10 ppm TCS in diet 4 weeks
  concentration of TCS, TCS-G, TCS-Sulfate: 0.1 pmol/mg and 0.16 pmol/mg
[2]; Feces, 80 ppm TCS in diet 4 weeks
  concentration of TCS, TCS-G, TCS-Sulfate: 3.27 pmol/mg and 1.08 pmol/mg
[2]; Fig. S3b, Cecum, individual mice No. 1-10 per row
  Level in Cecum: 0.53 and 0.56 and 0.38 and 0.61 and 0.54 and 0.12 and 0.13 and 0.09 and 0.35 and 0.29
[2]; Fig. S3b, Colon, individual mice No. 1-10 per row
  Level in Colon: 0.78 and 1.13 and 3.01 and 1.95 and 2.87 and 1.28 and 1 and 1.68 and 1.44 and 2.3
[2]; Fig. S3b, SI 1st section, individual mice No. 1-10 per row
  Level in SI 1st section: 7.35 and 7.33 and 7.48 and 7.82 and 9.31 and 9.27 and 9.71 and 4.38 and 7.68 and 8.04
[2]; Fig. S3b, SI 2nd section, individual mice No. 1-10 per row
  Level in SI 2nd section: 6.24 and 6.6 and 5.34 and 6.55 and 6.34 and 6.37 and 6.86 and 2.98 and 4.48 and 5.78
[2]; Fig. S3b, SI 3rd section, individual mice No. 1-10 per row
  Level in SI 3rd section: 5.62 and 5.7 and 3.67 and 5.46 and 7.7 and 5.86 and 4.93 and 2.15 and 4.34 and 5.06
[2]; Fig. S3b, SI 4th section, individual mice No. 1-10 per row
  Level in SI 4th section: 7.25 and 6.61 and 6.48 and 10.63 and 8.75 and 6.52 and 6.94 and 2.9 and 7.06
[2]; Heart, 80 ppm TCS via diet 4 weeks
  concentration of TCS, TCS-G, TCS-Sulfate: 10.90 pmol/mg and 8.11 pmol/mg and 9.20 pmol/mg and 10.24 pmol/mg
[2]; Liver, 80 ppm TCS via diet 4 weeks
  concentration of TCS, TCS-G, TCS-Sulfate: 37.26 pmol/mg and 31.81 pmol/mg and 21.91 pmol/mg and 24.89 pmol/mg and 30.95 pmol/mg and 12.68 pmol/mg and 35.36 pmol/mg and 32.58 pmol/mg and 32.38 pmol/mg and 20.28 pmol/mg
[2]; SI 1st section (digesta), 80 ppm TCS via diet 4 weeks
  concentration of TCS, TCS-G, TCS-Sulfate: 7.33 pmol/mg and 7.48 pmol/mg and 7.82 pmol/mg and 9.31 pmol/mg
[2]; SI 2nd section (digesta), 80 ppm TCS via diet 4 weeks
  concentration of TCS, TCS-G, TCS-Sulfate: 6.37 pmol/mg and 6.86 pmol/mg and 2.98 pmol/mg and 4.48 pmol/mg and 5.78 pmol/mg and 6.24 pmol/mg and 6.60 pmol/mg and 5.34 pmol/mg and 6.55 pmol/mg and 6.34 pmol/mg
[2]; SI 3rd section (digesta), 80 ppm TCS via diet 4 weeks
  concentration of TCS, TCS-G, TCS-Sulfate: 5.86 pmol/mg and 4.93 pmol/mg and 2.15 pmol/mg and 4.34 pmol/mg and 5.06 pmol/mg and 5.62 pmol/mg and 5.70 pmol/mg and 3.67 pmol/mg and 5.46 pmol/mg and 7.70 pmol/mg
[2]; SI 4th section (digesta), 80 ppm TCS via diet 4 weeks
  concentration of TCS, TCS-G, TCS-Sulfate: 6.52 pmol/mg and 6.94 pmol/mg and 2.90 pmol/mg and 6.61 pmol/mg and 7.06 pmol/mg and 7.25 pmol/mg and 6.48 pmol/mg and 10.63 pmol/mg and 8.75 pmol/mg
[2]; digesta of the 4th section of the mouse small intestine, 80 ppm TCS via diet 4 weeks
  share of TCS metabolites found: 7.7%
[2]; fecal content, 80 ppm TCS via diet 4 weeks
  share of TCS metabolites found: 0.2%

## O=C(O)[C@H]1OC(Oc2cc(Cl)ccc2Oc2ccc(Cl)cc2Cl)[C@H](O)[C@@H](O)[C@@H]1O (stereo partly shown) [TCSG]
[3]; human fecal extract sample F2
  TCSG turnover rate: 0.0489 µM/s and 0.0506 µM/s and 0.0488 µM/s
[3]; human fecal extract sample F3
  TCSG turnover rate: 0.0556 µM/s and 0.0559 µM/s and 0.0553 µM/s
[3]; human fecal extract sample F4
  TCSG turnover rate: 0.036 µM/s and 0.0272 µM/s and 0.0271 µM/s
[3]; human fecal extract sample M1
  TCSG turnover rate: 0.063 µM/s and 0.0659 µM/s and 0.0613 µM/s
[3]; human fecal extract sample M2
  TCSG turnover rate: 0.0168 µM/s and 0.0179 µM/s and 0.0157 µM/s
[3]; human fecal extract sample M3
  TCSG turnover rate: 0.0438 µM/s and 0.0439 µM/s and 0.0436 µM/s
